# In ChEMBL document CHEMBL1201862, “PubChem BioAssay data set” (2004):
# Calls of active or inactive are those of the source.
# Columns and labels:
# [1] = target: T1, Coagulation factor XII (Homo sapiens, UniProt P00748); assay: activated coagulation factor XII inhibitor potency, concentration-effect curve, cell-free (AID 716); format: functional
# T1 sequence (P00748 whole entry): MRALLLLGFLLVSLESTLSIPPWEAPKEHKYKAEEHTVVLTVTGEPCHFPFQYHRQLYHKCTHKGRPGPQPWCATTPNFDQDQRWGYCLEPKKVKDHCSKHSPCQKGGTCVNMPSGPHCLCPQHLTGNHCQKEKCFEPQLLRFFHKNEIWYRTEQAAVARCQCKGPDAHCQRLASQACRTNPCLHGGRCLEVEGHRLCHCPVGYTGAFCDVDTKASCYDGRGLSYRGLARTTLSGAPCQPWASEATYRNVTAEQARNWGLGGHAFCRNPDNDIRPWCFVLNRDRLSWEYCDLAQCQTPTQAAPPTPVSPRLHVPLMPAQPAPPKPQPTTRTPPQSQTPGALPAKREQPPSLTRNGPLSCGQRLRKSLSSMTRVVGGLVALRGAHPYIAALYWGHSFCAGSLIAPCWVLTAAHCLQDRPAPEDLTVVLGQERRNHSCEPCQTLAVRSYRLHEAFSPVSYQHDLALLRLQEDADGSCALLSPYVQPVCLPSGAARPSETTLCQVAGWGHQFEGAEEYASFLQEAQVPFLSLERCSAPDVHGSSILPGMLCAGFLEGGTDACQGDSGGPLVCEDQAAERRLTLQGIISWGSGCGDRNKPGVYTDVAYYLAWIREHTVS
# [2] = target: T1, Coagulation factor XII; assay: Factor XIIa Dose Response Confirmation from Single Well HTS. [Related pubchem assays (depositor defined):AID701]; format: functional
# [3] = target: T2, Corticotropin-releasing factor receptor 2/Corticotropin-releasing factor-binding protein (Homo sapiens, UniProt P24387+Q13324); assay: activators of CRF receptor 2 with binding protein – uHTS hits, confirmation (AID 602473); format: functional; settings: read-out: EC50_Mean
# T2 sequence (Q13324 whole entry): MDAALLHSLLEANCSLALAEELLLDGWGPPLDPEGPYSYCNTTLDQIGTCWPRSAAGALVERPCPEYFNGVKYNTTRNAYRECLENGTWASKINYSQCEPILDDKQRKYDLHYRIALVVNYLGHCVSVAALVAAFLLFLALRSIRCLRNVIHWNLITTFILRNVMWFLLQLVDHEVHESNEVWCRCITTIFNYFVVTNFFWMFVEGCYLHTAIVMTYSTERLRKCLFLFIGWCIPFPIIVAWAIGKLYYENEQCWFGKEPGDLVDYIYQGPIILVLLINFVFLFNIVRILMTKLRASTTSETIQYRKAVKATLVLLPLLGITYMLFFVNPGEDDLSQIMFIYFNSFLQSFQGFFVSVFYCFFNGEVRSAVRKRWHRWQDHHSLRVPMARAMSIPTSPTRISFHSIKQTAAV
# T2 sequence (P24387 whole entry): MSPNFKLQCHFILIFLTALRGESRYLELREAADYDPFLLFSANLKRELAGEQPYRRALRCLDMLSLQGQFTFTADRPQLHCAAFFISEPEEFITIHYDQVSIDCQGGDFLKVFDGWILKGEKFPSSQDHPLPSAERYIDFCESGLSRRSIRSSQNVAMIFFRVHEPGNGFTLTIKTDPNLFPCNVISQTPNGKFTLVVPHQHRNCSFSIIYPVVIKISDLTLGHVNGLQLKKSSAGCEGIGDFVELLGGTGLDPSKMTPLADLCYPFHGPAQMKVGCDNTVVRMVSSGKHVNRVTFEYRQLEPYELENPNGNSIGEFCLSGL
# [4] = target: Troponin, cardiac muscle (Homo sapiens, UniProt P19429+P45379+P63316); assay: Fluorescence-based biochemical high throughput dose response assay for activators of the calcium sensitivity of cardiac Regulated Thin Filaments (RTF). [Related pubchem assays (depositor defined):AID493008, AID493018, AID504382, AID504383]; format: protein-complex assay
# [5] = target: Delta-type opioid receptor (Homo sapiens, UniProt P41143); assay: SAR Analysis of Antagonists of the DOR Receptor using an Image-Based Assay - Set 3. [Related pubchem assays (depositor defined):AID1777, AID1785]; format: functional;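 further: U2OS cells expressing DOR1 and beta-arrestin GFP stimulated with 100 nM SNC80; imaging of GFP-tagged beta-arrestin moving into spots after receptor activation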
# [6] = target: Mu-type opioid receptor (Homo sapiens, UniProt P35372); assay: SAR Analysis of Antagonists of the MOR Receptor using an Image-Based Assay - Set 3. [Related pubchem assays (depositor defined):AID1777, AID1785, AID1786, AID1966, AID2133, AID2136, AID2284, AID2285, AID2420]; format: functional
# [7] = target: T3, Kappa-type opioid receptor (Homo sapiens, UniProt P41145); assay: SAR analysis of small molecule antagonists of the kappa opioid receptor via a luminescent beta-arrestin assay - Set 3. [Related pubchem assays (depositor defined):AID1777, AID1778, AID1785, AID1786, AID1966, AID2133, AID2136, AID2285, AID2495]; format: functional
# [8] = target: T3, Kappa-type opioid receptor; assay: SAR analysis of Antagonists of the Kappa Opioid Receptor (KOR) using an Image-Based Assay - Set 3. [Related pubchem assays (depositor defined):AID1777, AID1785]; format: functional
# [9] = target: Paired box protein Pax-8 (Homo sapiens, UniProt Q06710); assay: PAX8 transcriptional activity inhibition in RMG-I – RMG-I cells, luciferase, cherry-pick, dose response (AID 687027); format: functional, cell-based;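 further: luciferase reporter driven by Pax8 target thyroperoxidase promoter measured by SteadyGlo luminescence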
# [10] = Late stage assay provider results from the probe development effort to identify inhibitors of GSTO1: luminescence-based […] dose response assay to determine cytotoxicity of inhibitor compounds. [Related pubchem assays (depositor defined):AID1515, AID1974, AID2175, AID2176, AID463081, AID463098, AID463101, AID463102, AID463110, AID463142] Panel member name: Assay 1: % Surviving cells, serum-free media; format: toxicity, cell-based
# [11] = tested on: BJ; assay: cells; format: functional, cell-based; settings: Homo sapiens
# [12] = general cell-killing toxicity readout – plate reader, dry powder samples, cytotoxicity control for PAX8 inhibitor project, dose response (AID 743021); format: functional, cell-based
# [13] = tested on: BJ; assay: BJ-TERT fibroblast viability loss – cell-based, RAS-independent, luminescence, dose response (AID 1933); format: functional; settings: Homo sapiens
# [14] = target: T4, Microphthalmia-associated transcription factor (Homo sapiens, UniProt O75030); assay: reducers of TRPM1 reporter luminescence, concentration series – cell-based, SK-MEL-5, cherry-picked, set 3, MITF inhibitor project, dose response (AID 493073); format: functional;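 further: SK-MEL-5 melanoma cells with luciferase driven by the MITF target TRPM1 promoter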
# T4 sequence (O75030 whole entry): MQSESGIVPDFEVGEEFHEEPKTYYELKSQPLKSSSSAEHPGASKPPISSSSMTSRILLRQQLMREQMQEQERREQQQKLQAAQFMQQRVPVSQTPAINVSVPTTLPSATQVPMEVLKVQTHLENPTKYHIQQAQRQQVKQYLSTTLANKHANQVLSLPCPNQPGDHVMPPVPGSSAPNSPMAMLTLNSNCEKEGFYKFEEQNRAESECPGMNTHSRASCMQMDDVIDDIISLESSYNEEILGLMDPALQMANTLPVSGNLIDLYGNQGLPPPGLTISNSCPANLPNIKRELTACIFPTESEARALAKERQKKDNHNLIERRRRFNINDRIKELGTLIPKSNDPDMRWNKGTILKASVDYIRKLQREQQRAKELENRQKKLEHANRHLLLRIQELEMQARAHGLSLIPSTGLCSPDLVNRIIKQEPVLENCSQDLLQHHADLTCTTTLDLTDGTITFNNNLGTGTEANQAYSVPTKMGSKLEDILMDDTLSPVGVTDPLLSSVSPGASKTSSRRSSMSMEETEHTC
# [15] = Late stage assay provider results from the probe development effort to identify inhibitors of GSTO1: luminescence-based biochemical dose response assay to determine cytotoxicity of inhibitor compounds. [Related pubchem assays (depositor defined):AID1515, AID1974, AID2175, AID2176, AID463081, AID463098, AID463101, AID463102, AID463110, AID463142] Panel member name: Assay 2: % Surviving cells, media plus FCS; format: toxicity, cell-based
# [16] = DRD fibroblast viability loss – cell-based, non-viral oncogenic, luminescence, dose response (AID 1934); format: functional; settings: Homo sapiens
# [17] = target: T5, Protein RecA (Mycobacterium tuberculosis, UniProt P9WHJ3); assay: Fluorescence Cell-Free Homogeneous Dose Retest to Identify Inhibitors of RecA-Intein Splicing Activity. [Related pubchem assays (depositor defined):AID2097, AID2223, AID489010, AID492950]; format: functional
# T5 sequence (P9WHJ3 whole entry): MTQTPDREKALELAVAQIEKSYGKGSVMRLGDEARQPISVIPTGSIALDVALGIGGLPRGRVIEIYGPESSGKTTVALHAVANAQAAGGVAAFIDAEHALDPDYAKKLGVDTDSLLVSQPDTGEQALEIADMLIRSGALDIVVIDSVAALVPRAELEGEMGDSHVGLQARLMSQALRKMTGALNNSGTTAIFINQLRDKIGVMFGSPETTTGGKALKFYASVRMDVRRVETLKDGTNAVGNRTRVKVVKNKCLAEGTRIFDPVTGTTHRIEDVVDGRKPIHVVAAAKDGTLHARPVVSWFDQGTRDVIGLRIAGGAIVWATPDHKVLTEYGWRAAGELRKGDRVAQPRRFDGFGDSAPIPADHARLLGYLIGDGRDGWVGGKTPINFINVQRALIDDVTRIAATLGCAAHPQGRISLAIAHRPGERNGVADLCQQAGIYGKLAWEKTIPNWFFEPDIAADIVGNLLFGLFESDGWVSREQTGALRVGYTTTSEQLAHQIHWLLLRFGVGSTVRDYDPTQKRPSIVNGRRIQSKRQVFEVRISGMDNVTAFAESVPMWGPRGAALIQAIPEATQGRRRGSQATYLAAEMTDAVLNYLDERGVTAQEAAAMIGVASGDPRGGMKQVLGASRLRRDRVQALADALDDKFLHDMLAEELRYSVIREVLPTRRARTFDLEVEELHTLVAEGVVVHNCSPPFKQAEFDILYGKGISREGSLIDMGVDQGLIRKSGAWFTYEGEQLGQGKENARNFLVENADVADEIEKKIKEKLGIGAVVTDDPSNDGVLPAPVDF
# [18] = tested on: BJ; assay: BJ-TERT-LT-ST fibroblast viability loss – cell-based, RAS-independent, luminescence, dose response (AID 1935); format: functional; settings: Homo sapiens;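 further: BJ fibroblasts immortalized with TERT plus LT and ST oncogenes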
# [19] = target: Glutathione S-transferase omega-1 (Homo sapiens, UniProt P78417); assay: IC50 of human GSTO1 inhibition by gel ABPP – biochemical, SE-Rh probe, in-gel fluorescence, powder samples, late-stage follow-up (AID 463081); format: functional
# [20] = target: T6, Replicative DNA helicase DnaB (Mycobacterium tuberculosis, UniProt P9WMR3); assay: DnaB intein splicing inhibitors, dose response, biochemical, cell-free fluorescence (AID 449749); format: functional
# T6 sequence (P9WMR3 whole entry): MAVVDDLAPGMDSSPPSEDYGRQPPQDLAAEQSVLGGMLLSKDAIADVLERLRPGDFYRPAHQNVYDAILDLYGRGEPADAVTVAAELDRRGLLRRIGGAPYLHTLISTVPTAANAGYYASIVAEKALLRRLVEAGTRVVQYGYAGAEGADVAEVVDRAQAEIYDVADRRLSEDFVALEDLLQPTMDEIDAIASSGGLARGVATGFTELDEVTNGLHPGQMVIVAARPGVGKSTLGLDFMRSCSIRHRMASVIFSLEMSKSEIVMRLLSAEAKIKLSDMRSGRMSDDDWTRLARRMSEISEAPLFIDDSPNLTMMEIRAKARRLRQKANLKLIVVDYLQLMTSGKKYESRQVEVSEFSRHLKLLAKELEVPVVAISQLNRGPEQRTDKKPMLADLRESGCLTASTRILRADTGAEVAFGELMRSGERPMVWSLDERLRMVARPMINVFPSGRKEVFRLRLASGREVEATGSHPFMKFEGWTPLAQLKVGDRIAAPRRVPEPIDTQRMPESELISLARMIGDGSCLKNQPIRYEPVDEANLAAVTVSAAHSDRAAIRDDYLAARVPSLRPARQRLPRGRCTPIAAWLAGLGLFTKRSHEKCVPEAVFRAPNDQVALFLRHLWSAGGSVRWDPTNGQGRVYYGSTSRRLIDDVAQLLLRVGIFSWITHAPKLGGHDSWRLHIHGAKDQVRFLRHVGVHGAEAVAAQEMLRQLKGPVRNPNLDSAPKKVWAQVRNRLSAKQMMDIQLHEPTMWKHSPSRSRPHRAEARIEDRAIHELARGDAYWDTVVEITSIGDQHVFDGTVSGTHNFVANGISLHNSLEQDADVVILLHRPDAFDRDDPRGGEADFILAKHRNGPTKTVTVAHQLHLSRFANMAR
structure (smiles),measurement,setting,value
NC(=O)Cn1cnc(-c2ccccc2)c1,IC50,[1],> 50 µM (inactive)
CCn1c(C)c(C(C)=O)c(N2CCN(c3ccccc3)CC2)nc1=S,IC50,[2],> 50 µM (inactive)
same,EC50,[3],> 53 µM (inactive)
O=C(COc1ccccc1F)NC1CC1,EC50,[4],> 71.5 µM (inactive)
O=C(Cn1c(=O)c2cccn2c2cccnc21)NCCCN1CCOCC1,IC50,[5],> 32 µM (inactive)
same,IC50,[6],> 32 µM (inactive)
same,IC50,[7],> 20 µM (inactive)
same,IC50,[8],> 32 µM (inactive)
COc1ccc(N(C(=O)CCl)C(C(=O)NC2CCCCC2)c2cccnc2)cc1 (stereo not given),AC50,[9],1.3 µM (active)
same,CC50,[10],> 45 µM (inactive)
same,EC50,[11],4.5 µM (active)
same,AC50,[12],3.18 µM (active)
same,EC50,[13],1.01 µM (active)
same,AC50,[14],5.87 µM (active)
same,CC50,[15],> 35 µM (inactive)
same,EC50,[16],2.63 µM (inconclusive)
same,EC50,[17],0.619 µM (active)
same,EC50,[18],7.37 µM (inconclusive)
same,IC50,[19],0.067 µM (active)
same,AC50,[20],7.67 µM (active)
